# From the OPERA property sets (Mansouri et al. 2018)
# Conditions: 25.0 °C
row,Compound,log10 OH rate constant (cm³/molecule/s)
1,Oc1cccc(Cl)c1Cl,-11.8
2,FCCF,-13
3,CC=O,-10.8
4,CC1=CC[C@@H](C(C)C)CC1,-9.9
5,CCCCCCCCCC,-10.9
6,OC1CCCC1,-11
7,CC(F)(F)F,-14.8
8,O=CCO,-11
9,CCC=C=O,-9.93
10,ClC(Cl)=C(Cl)Cl,-12.8
11,CCS,-10.3
12,Oc1ccccc1,-10.6
13,CCCCS,-10.3
14,CC1CO1 (centres undefined),-12.3
15,c1ccccc1,-11.9
16,CNN,-10.2
17,ClCCl,-12.8
18,c1ccsc1,-11
19,CC(C)c1ccccc1,-11.2
20,COC(C)(C)OC,-11.4
21,CCCCOC(=O)CCC,-11
22,Sc1ccccc1,-11
23,C=C1CCC2CC1C2(C)C (centres undefined),-10.1
24,ClC=C(Cl)Cl,-11.6
